This is an account of results in article PMC11272826, “Metabolism of alcohol ethoxylates (AEs) in rat, hamster, and human hepatocytes and liver S9: a pilot study for metabolic stability, metabolic pathway, and metabolites identification in vitro and in silico” (Archives of Toxicology, 2024).

The nature of data set [1]: Metabolic stability in cryopreserved hepatocytes (disappearance, half-life, CLint). The conditions noted are these: human, pooled cryopreserved hepatocytes, pH 7.4.
Method: (§2) The metabolic stability assay was performed in a 48-well plate format (duplicate with cells and single without cells).
(§3) The hepatocytes were thawed and re-suspended in Celsis InVitro KHB medium (pH 7.4). […] The samples were collected and stored at − 20 °C for further analysis.
(§4) The UPLC-Q-Exactive Orbitrap MS system consisted of a Thermo Vanquish Horizon UHPLC with an autosampler, vacuum degasser, photodiode array (PDA) detector (210–500 nm), and column oven coupled to a Q-Exactive Orbitrap Focus mass spectrometer (Thermo Fisher Scientific, Waltham, MA, USA). The analytical column used was a Waters Acquity BEH C8 2.1 × 50 mm with 1.7 particle size (Waters Corp, Milford, MA, USA). The temperature of the column oven was 40 °C, and the injection volume was 4 μl. The aqueous eluent (A) was 0.1% formic acid (B) was acetonitrile. […] The eluent flow rate was 0.5 ml/min and the flow was directed to the MS through a PDA detector. The data acquisition was performed using positive Electrospray Ionization (ESI+) polarity with a capillary voltage of 3000 V. Capillary temperature was 320 °C and auxiliary gas temperature was 500 °C. The mass spectrometer was operated in the data-dependent MS2 mode, which acquires full-scan MS and MS/MS fragment ion data in the same run. Scan was performed with a resolution of 35,000 (full width at half maximum at m/z 200), while an Automated Gain Control target of a million ions, maximum injection time of 100 ms, and a scan range of 100–1000 m/z were used. […] Nitrogen was used as a sheath gas with 50 units, auxiliary gas with 10 units and as a sweep gas with 5 units. Ion chromatograms were extracted from the total ion chromatograms using calculated monoisotopic accurate masses with 5 mDa window. Calibration curves were generated using an external standard. The data were processed with Thermo Xcalibur 4.1.31.9 software.
(§5) The first-order rate constants k (min^−1) of the metabolism were obtained from the slope of time versus ln (% remaining) plots using Excel software. All time points (log-scale) were used in fitting the rate constant k based on visual inspection of the curves.
(§6) The in vitro half-life (t1/2) of the test compound(s) is defined as: t1/2=ln2/k
(§7) CLint,inc = k*V/(M), where V is the volume of the incubation and M is the number of cells or amount of S9 protein in the incubation.
The subject of data set [2] is human hepatocytes. Described as above. The conditions noted are these: human hepatocytes, range over 1 and 10 µM.
Method: as §2, §3, §4, §5, §6, §7
Data set [3] is described as follows: Metabolic stability in liver S9 fraction (disappearance, half-life, CLint).
Method: The metabolic stability assay was performed in a 48-well plate format (duplicate with cofactors and single without cofactors).
Each incubation contained test compound (final concentration of 1 or 10 µM), liver S9 (1.5 mg/ml protein content), Cofactors (1 mM NADPH + 1 mM UDPGA + 0.2 mM PAPS), MgCl2 (2 mM), and potassium phosphate buffer (100 mM at pH 7.4). […] The incubation was carried out at 37 °C for 60 min with and without cofactors. […] The samples were collected and stored at − 20 °C for further analysis.
(§8) The in vitro metabolism of the five individual homologue AEs (i.e. C8EO4, C10EO5, C12EO4, C16EO8, and C18EO3) was analyzed by liquid chromatography–mass spectrometry (LC–MS). The UPLC-Q-Exactive Orbitrap MS system consisted of a Thermo Vanquish Horizon UHPLC with an autosampler, vacuum degasser, photodiode array (PDA) detector (210–500 nm), and column oven coupled to a Q-Exactive Orbitrap Focus mass spectrometer (Thermo Fisher Scientific, Waltham, MA, USA). The analytical column used was a Waters Acquity BEH C8 2.1 × 50 mm with 1.7 particle size (Waters Corp, Milford, MA, USA). The temperature of the column oven was 40 °C, and the injection volume was 4 μl. The aqueous eluent (A) was 0.1% formic acid (B) was acetonitrile. […] The eluent flow rate was 0.5 ml/min and the flow was directed to the MS through a PDA detector. The data acquisition was performed using positive Electrospray Ionization (ESI+) polarity with a capillary voltage of 3000 V. Capillary temperature was 320 °C and auxiliary gas temperature was 500 °C. The mass spectrometer was operated in the data-dependent MS2 mode, which acquires full-scan MS and MS/MS fragment ion data in the same run. Scan was performed with a resolution of 35,000 (full width at half maximum at m/z 200), while an Automated Gain Control target of a million ions, maximum injection time of 100 ms, and a scan range of 100–1000 m/z were used. […] Nitrogen was used as a sheath gas with 50 units, auxiliary gas with 10 units and as a sweep gas with 5 units. Ion chromatograms were extracted from the total ion chromatograms using calculated monoisotopic accurate masses with 5 mDa window. Calibration curves were generated using an external standard. The data were processed with Thermo Xcalibur 4.1.31.9 software.
as §5, §6, §7
For data set [4], the system named is rat hepatocytes. Put plainly: Metabolite profiling by LC-MS in hepatocytes. The conditions noted are these: for Number of metabolites detected: rat hepatocytes.
Method: as §3, §8
A short description of data set [5]: Metabolite profiling by LC-MS in liver S9. From the text: (§1) Calibration curves were generated using an external standard.
In data set [6] the test system is rat hepatocytes. Put plainly: Metabolic stability in cryopreserved hepatocytes (disappearance, half-life, CLint). Conditions: rat hepatocytes, range over 1 and 10 µM.
Method: as §2, §3, §4, §5, §6, §7
Test in data set [7]: as above
Method: as §2, §3, §4, §5, §6, §7
The conditions noted are these: Sprague Dawley, rat, pooled cryopreserved hepatocytes, pH 7.4.

Data set [8] has as its system human hepatocytes. As to the kind of experiment: Metabolite profiling by LC-MS in hepatocytes. Conditions: for Number of metabolites detected: human hepatocytes.
Method: as §3, §8
Data set [9] is described as follows: Metabolic stability in liver S9 fraction (disappearance, half-life, CLint). How it is done: as §1
Intrinsic in vitro clearance was calculated as follows: […]
The source holds these as a separate data set.

Data set [10] can be described thus: Metabolite profiling by LC-MS in buffer (incubation without cells). The conditions noted are these: 120 min.
Method: as §3, §8
Data set [11] deals with hamster hepatocytes. As to the kind of experiment: Metabolite profiling by LC-MS in hepatocytes. The conditions noted are these: for Number of metabolites detected: hamster hepatocytes.
Method: as §3, §8
In data set [12] the test system is hamster hepatocytes. Put plainly: Metabolic stability in cryopreserved hepatocytes (disappearance, half-life, CLint). The conditions noted are these: hamster hepatocytes, range over 1 and 10 µM.
Method: as §2, §3, §4, §5, §6, §7
Test in data set [13]: as above
Conditions: Syrian, hamster, pooled cryopreserved hepatocytes, pH 7.4.
Method: as §2, §3, §4, §5, §6, §7

Data set [14] deals with female Colworth Wistar rats. Also on record: method as in Unilever [1978]. The conditions noted are these: 14C-labelled, oral, rat, ref Unilever [1978], cited from earlier work; for Total recovery in urine, feces, air, and carcass of the administered compound: 4 days.
The next data set concerns adult males. Also on record: method as in Drotman [1980]. Conditions: ref Drotman [1980], cited from earlier work; for Amounts in the blood / Radioactivity recovered after 144 h in urine, feces, and air: human males, 50 mg capsule; for Excreted within the first 24 h: radiolabeled, human male volunteers.
Where [15] appears, read: human, pooled liver S9, pH 7.4, Half-lives t1/2, Liver S9, 1 μM.
The mark [16] stands for this setting: metabolite profile of C8EO4, 10 µM incubation, 120 min.
[17] abbreviates: Sprague-Dawley, rat, pooled liver S9, pH 7.4.
[18] abbreviates: Syrian, hamster, pooled liver S9, pH 7.4.
The mark [19] stands for this setting: metabolite profile of C16EO8, 10 µM incubation, 120 min.
The mark [20] stands for this setting: metabolite profile of C16EO8, 10 µM incubation, 60 min, with cofactors.
[21] abbreviates: metabolite profile of C16EO8, 10 µM incubation, 60 min, without cofactors.
[22] abbreviates: metabolite profile of C18EO3, 10 µM incubation, 120 min.
Setting [23] is: metabolite profile of C18EO3, 10 µM incubation, 60 min.
Setting [24] is: Sprague-Dawley, rat, s9, pH 7.4.

Take `CCCCCCCCOCCOCCOCCOCCO` [C8EO4]: the half-life at 1 µM worked out at 12.9 min in data set [1]; 11.8 min in data set [3] (setting [15]); 3.2 min in data set [7]; 37.8 min in data set [9] (setting [17]); 7.7 min in [9] (setting [18]); 4.3 min in data set [13]. Also, the half-life at 10 µM in data set [1] stood at 12 min; in [3] (human, pooled liver S9, pH 7.4, Half-lives t1/2, Liver S9, 10 μM), 13.8 min; in [7], 3.6 min; in data set [9] (setting [17]), 58.1 min; in [9] (setting [18]), 14.5 min; in data set [13], 6.5 min. Moreover, the “Initial concentration remaining after 120 min incubation” value in the data set on human hepatocytes [2], with rat hepatocytes [6] and in the data set on hamster hepatocytes [12] was 0.1–3% each time. For the same compound, the “Initial concentration remaining after 60 min incubation” value in [3] (human liver S9, range over 1 and 10 µM) is given as 1–6%; in data set [9] (hamster liver S9, range over 1 and 10 µM), 1–6%; in data set [9] (rat liver S9, range over 1 and 10 µM), 34–49%. The microsomal CLint at 1 µM came out at 39.2 µL/min/mg in data set [3] (human, pooled liver S9, pH 7.4); 12.2 µL/min/mg in [9] (setting [17]); 59.7 µL/min/mg in data set [9] (setting [18]). Further, the microsomal CLint at 10 µM was determined as 33.6 µL/min/mg in data set [3] (human, pooled liver S9, pH 7.4); 7.95 µL/min/mg in [9] (setting [17]); 31.8 µL/min/mg in [9] (setting [18]). Besides, in the data set on rat hepatocytes [4] (setting [16]), the “Percentage of the total peak area, Hepatocytes, Rat” value is listed as 0.1%. The “Number of metabolites detected” value with rat hepatocytes [4] came out at 20; in data set [5] (hamster liver S9) it was 20; in data set [5] (human liver S9), 17; in data set [5] (rat liver S9) it was 16; in the data set on human hepatocytes [8], 21; in the data set on hamster hepatocytes [11], 22. Further, the “Percentage of the total peak area, Hepatocytes, Human” value in the data set with human hepatocytes [8] (setting [16]) is given as 0.1%. For the same compound, in data set [10] (metabolite profile of C8EO4, 10 µM incubation without cells), the “Percentage of the total peak area, Hepatocytes, Buffer” value is given as 99.8%. Moreover, in the data set with hamster hepatocytes [11] (setting [16]), the “Percentage of the total peak area, Hepatocytes, Hamster” value worked out at 0.1%.
Take `CCCCCCCCCCCCOCCOCCOCCO` [C12EO3]: in data set [14], the “Total recovery in urine, feces, air, and carcass of the administered compound” value is given as about 100%; the 14C in air result was “about 10%”.
Consider `CCCCCCCCCCCCOCCOCCOCCOCCOCCOCCO` [C12EO6], for which, in data set [14], the “Total recovery in urine, feces, air, and carcass of the administered compound” value is given as about 100%; the 14C in air result is given as “about 10%”. In the data set with adult males, the “Amounts in the blood” value was at most 1%; the “Radioactivity recovered after 144 h in urine, feces, and air” value is recorded as 83–89%; the “Excreted within the first 24 h” value was 75%.
For the compound `CCCCCCCCCCCCCOCCOCCOCCOCCOCCOCCO` [C13EO6], in the data set on adult males, the “Amounts in the blood” value is given as at most 1%; the “Radioactivity recovered after 144 h in urine, feces, and air” value is 83–89%; the “Excreted within the first 24 h” value is 75%.
Turning to `CCCCCCCCCCCCCCCCOCCOCCOCCOCCOCCOCCOCCOCCO` [C16EO8], the half-life at 1 µM in data set [1] worked out at 39 min; in data set [3] (setting [15]), 139 min; in [7], 6.6 min; in [9] (setting [17]) it was 16 min; in data set [9] (setting [18]), 118 min; in [13], 27 min. Also, the half-life at 10 µM came out at 85 min in data set [1], 9.2 min in data set [7] and 30 min in data set [13]. Also, the “Initial concentration remaining after 120 min incubation” value was 11–36% with human hepatocytes [2] and 4–5% in the data set with hamster hepatocytes [12]. In addition, the microsomal CLint at 1 µM in [3] (human, pooled liver S9, pH 7.4) stood at 3.33 µL/min/mg; in data set [9] (setting [17]), 29.6 µL/min/mg; in [9] (setting [18]) it was 3.92 µL/min/mg. In addition, in the data set with rat hepatocytes [4] (setting [19]), the “Hepatocytes, % Rat (percentage of the total peak area)” value was 1.0%. The “Number of metabolites detected” value in the data set with rat hepatocytes [4] stood at 32; in [5] (hamster liver S9) it was 33; in [5] (human liver S9), 33; in data set [5] (rat liver S9) it was 33; with human hepatocytes [8], 32; in the data set on hamster hepatocytes [11], 32. Further, the “Liver S9 with cofactors, % Hamster (percentage of the total peak area)” value in data set [5] (setting [20]) is given as 82.7%. For the same compound, in data set [5] (setting [20]), the “Liver S9 with cofactors, % Human (percentage of the total peak area)” value came to 72.0%. Further, the “Liver S9 with cofactors, % Rat (percentage of the total peak area)” value in data set [5] (setting [20]) worked out at 85.8%. Besides, the “Liver S9 without cofactors, % Hamster (percentage of the total peak area)” value in data set [5] (setting [21]) amounted to 97.4%. In addition, in [5] (setting [21]), the “Liver S9 without cofactors, % Human (percentage of the total peak area)” value is 96.6%. Further, the “Liver S9 without cofactors, % Rat (percentage of the total peak area)” value in [5] (setting [21]) came to 98.7%. Besides, the “Hepatocytes, % Human (percentage of the total peak area)” value in the data set on human hepatocytes [8] (setting [19]) came to 30.3%. The “Hepatocytes, % Buffer (percentage of the total peak area)” value in data set [10] (metabolite profile of C16EO8, 10 µM incubation, buffer without cells) turned out to be 29.7%. In addition, the “Hepatocytes, % Hamster (percentage of the total peak area)” value in the data set on hamster hepatocytes [11] (setting [19]) was found to be 10.6%.
In data set [3] (human, pooled liver S9, pH 7.4), `CCCCCCCCCCCCCCCCCCOCCOCCOCCO` [C18EO3] yielded a microsomal CLint at 1 µM of 15.9 µL/min/mg. In [3] (setting [15]), this compound gave a half-life at 1 µM of at least 29 min. Besides, the “Percentage of the total peak area, Hepatocytes, Rat” value with rat hepatocytes [4] (setting [22]) is 98.3%. Also, in the data set on rat hepatocytes [4], the “Number of metabolites detected” value is on record as 4. The “Number of metabolites detected” value in [5] (human liver S9) was 11. In data set [5] (setting [23]), the “Percentage of the total peak area, Liver S9 with cofactors, Hamster” value turned out to be 79.9%; the “Percentage of the total peak area, Liver S9 with cofactors, Human” value is recorded as 58.2%; the “Percentage of the total peak area, Liver S9 with cofactors, Rat” value worked out at 90.3%; the “Percentage of the total peak area, Liver S9 without cofactors, Hamster” value is recorded as 100.0%. In data set [5] (setting [23]), the “Percentage of the total peak area, Liver S9 without cofactors, Human” value came to 100.0% and the “Percentage of the total peak area, Liver S9 without cofactors, Rat” value came to 100.0%. For the same compound, the “Number of metabolites detected” value in the data set with human hepatocytes [8] is 9. Further, in the data set with human hepatocytes [8] (setting [22]), the “Percentage of the total peak area, Hepatocytes, Human” value came to 8.9%. Moreover, in data set [9] (setting [17]), the half-life at 1 µM is 32 min and the microsomal CLint at 1 µM is 14.6 µL/min/mg. Further, in [9] (setting [18]), the half-life at 1 µM was 29 min and the microsomal CLint at 1 µM stood at 16.2 µL/min/mg. Besides, the “Number of metabolites detected” value in the data set on hamster hepatocytes [11] is reported as 4. The “Percentage of the total peak area, Hepatocytes, Hamster” value in the data set on hamster hepatocytes [11] (setting [22]) was determined as 97.5%.
For `Cc1ncc2n1-c1ccc(Cl)cc1C(c1ccccc1F)=NC2` [midazolam, Midazolam, reference compound], the half-life at 1 µM in data set [3] (human, s9, pH 7.4) is under 6.3 min; in data set [9] (setting [24]), 11.8 min; in [9] (Syrian, hamster, s9, pH 7.4) it was under 6.3 min. For the same compound, the microsomal CLint at 1 µM in data set [3] (human, s9, pH 7.4) is over 75 µL/min/mg; in data set [9] (setting [24]) it was 39.1 µL/min/mg; in data set [9] (Syrian, hamster, s9, pH 7.4) it was over 75 µL/min/mg.
